Results from patent publication US9115143B2, “Substituted indole derivatives as gamma secretase modulators” (Janssen Pharmaceuticals, Inc., priority 2011, dated 2015).

What was measured:
Aβ42 = assay: Screening for γ-secretase-modulating activity: Aβ42 in supernatant of SKNBE2 cells carrying hAPP 695 wild type (Alphalisa); format: cell-based, human; conditions: overnight incubation, Alphalisa on supernatant
Outline: (§1)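 SKNBE2 human neuroblastoma cells expressing wild-type hAPP 695 (10^4/well) were incubated overnight at 37 °C, 5% CO2 with compound at several concentrations. Supernatant Aβ42 and Aβtotal measured by AlphaLISA sandwich immunoassays; IC50 from 4-parameter fit of percent of untreated control versus log concentration.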

Aβtotal = assay: Screening for γ-secretase-modulating activity: Aβtotal in supernatant of SKNBE2 cells carrying hAPP 695 wild type (Alphalisa); format: cell-based, human; conditions: overnight incubation, Alphalisa on supernatant
Outline: as §1

[1] = Homo sapiens, SKNBE2, SKNBE2 human neuroblastoma cells carrying hAPP 695 wild type
[2] = SKNBE2 human neuroblastoma cells carrying hAPP 695 wild type

| melting point [°C] | IC50 (Aβ42; [1]) [µM] | IC50 (Aβtotal; [1]) [µM] | IC50 (Aβ42; [2]) [µM] | IC50 (Aβtotal; [2]) [µM] | Structure (SMILES) |
| --- | --- | --- | --- | --- | --- |
| 261.3 | 0.062 | > 10 |  |  | Cc1cn(-c2ccc3[nH]c(-c4nc5n(n4)CCOC5c4cccc(F)c4C)cc3c2)cn1 (stereo not drawn) [Compound 36, 8-(3-fluoro-2-methylphenyl)-5,6-dihydro-2-[5-(4-methyl-1H-imidazol-1-yl)-1H-indol-2-yl]-8H-[1,2,4]triazolo[5,1-c][1,4]oxazine] |
| 297.5 | 0.048 | > 10 |  |  | Cc1cn(-c2ccc3[nH]c(-c4nc5n(n4)CCOC5c4ccc(F)cc4C(C)C)cc3c2)cn1 (stereo not drawn) [Compound 100, 8-[4-fluoro-2-(1-methylethyl)phenyl]-5,6-dihydro-2-[5-(4-methyl-1H-imidazol-1-yl)-1H-indol-2-yl]-8H-[1,2,4]triazolo[5,1-c][1,4]oxazine] |
| 191.8 | 0.026 | > 10 |  |  | Cc1cc(-c2ccc3[nH]c(-c4cn5c(n4)C(c4ccc(F)cc4C)OCC5)cc3c2)ccn1 (stereo not drawn) [Compound 103, 8-(4-fluoro-2-methylphenyl)-5,6-dihydro-2-[5-(2-methyl-4-pyridinyl)-1H-indol-2-yl]-8H-imidazo[2,1-c][1,4]oxazine] |
| 285.7 | 0.034 | > 10 |  |  | CCc1cc(F)ccc1C1OCCn2nc(-c3cc4cc(-n5cnc(C)c5)ccc4[nH]3)nc21 (stereo not drawn) [Compound 105, 8-(2-ethyl-4-fluorophenyl)-5,6-dihydro-2-[5-(4-methyl-1H-imidazol-1-yl)-1H-indol-2-yl]-8H-[1,2,4]triazolo[5,1-c][1,4]oxazine] |
| 263.8 | 0.447 | > 10 |  |  | Cc1cc(F)ccc1C1OCCn2nc(-c3cc4nc(-c5cnn(C)c5)ccc4[nH]3)nc21 (stereo not drawn) [Compound 106, 8-(4-fluoro-2-methylphenyl)-5,6-dihydro-2-[5-(1-methyl-1H-pyrazol-4-yl)-1H-pyrrolo[3,2-b]pyridin-2-yl]-8H-[1,2,4]triazolo[5,1-c][1,4]oxazine] |
| 257.4 |  |  | 1.48 | > 10 | COc1c(C#N)ccc2[nH]c(-c3nc4n(n3)CCOC4c3ccc(F)cc3C)cc12 (stereo not drawn) [Compound 115, 2-[8-(4-fluoro-2-methylphenyl)-5,6-dihydro-8H-[1,2,4]triazolo[5,1-c][1,4]oxazin-2-yl]-4-methoxy-1H-indole-5-carbonitrile] |
| 285.1 | 0.033 | > 10 |  |  | Cc1cn(-c2ccc3[nH]c(-c4nc5n(n4)CCOC5c4cc(F)c(F)c(C)c4C)cc3c2)cn1 (stereo not drawn) [Compound 116, 8-(4,5-difluoro-2,3-dimethylphenyl)-5,6-dihydro-2-[5-(4-methyl-1H-imidazol-1-yl)-1H-indol-2-yl]-8H-[1,2,4]triazolo[5,1-c][1,4]oxazine] |
| 238.2 |  |  | 2.19 | > 10 | COc1c(C#N)ccc2[nH]c(-c3nc4n(n3)CCOC4c3cccc(F)c3C)cc12 (stereo not drawn) [Compound 150, 2-[8-(3-fluoro-2-methylphenyl)-5,6-dihydro-8H-[1,2,4]triazolo[5,1-c][1,4]oxazin-2-yl]-4-methoxy-1H-indole-5-carbonitrile] |

The next lines start with the compound.

| Structure (SMILES) | melting point [°C] | IC50 (Aβ42; [1]) [µM] | IC50 (Aβtotal; [1]) [µM] | IC50 (Aβ42; [2]) [µM] | IC50 (Aβtotal; [2]) [µM] |
| --- | --- | --- | --- | --- | --- |
| Cc1ccccc1C1CCCn2nc(-c3cc4nc(C#N)ccc4[nH]3)nc21 (stereo not drawn) [Compound 25, 2-[5,6,7,8-tetrahydro-8-(2-methylphenyl)[1,2,4]triazolo[1,5-a]pyridin-2-yl]-1H-pyrrolo[3,2-b]pyridine-5-carbonitrile] | 264.9 | 0.398 | > 10 |  |  |
| N#Cc1ccc2[nH]c(-c3nc4n(n3)CCCC4c3ccccc3C(F)(F)F)cc2n1 (stereo not drawn) [Compound 26, 2-[5,6,7,8-tetrahydro-8-[2-(trifluoromethyl)phenyl][1,2,4]triazolo[1,5-a]pyridin-2-yl]-1H-pyrrolo[3,2-b]pyridine-5-carbonitrile] | 272.3 | 0.331 | > 10 |  |  |
| COc1ccc2[nH]c(-c3nc4n(n3)CCCC4c3ccccc3C(F)(F)F)cc2c1 (stereo not drawn) [Compound 29, 5,6,7,8-tetrahydro-2-(5-methoxy-1H-indol-2-yl)-8-[2-(trifluoromethyl)phenyl]-[1,2,4]triazolo[1,5-a]pyridine] | 183 | 4.79 | > 15.1 |  |  |
| Cc1ccccc1C1CCCn2nc(-c3cc4cc(-c5cnn(C)c5)ccc4[nH]3)nc21 (stereo not drawn) [Compound 31, 5,6,7,8-tetrahydro-8-(2-methylphenyl)-2-[5-(1-methyl-1H-pyrazol-4-yl)-1H-indol-2-yl]-[1,2,4]triazolo[1,5-a]pyridine] | 223.8 | 0.076 | > 10 |  |  |
| Cc1cc(F)ccc1C1CCCn2nc(-c3cc4nc(-c5cnn(C)c5)ccc4[nH]3)nc21 (stereo not drawn) [Compound 32, 8-(4-fluoro-2-methylphenyl)-5,6,7,8-tetrahydro-2-[5-(1-methyl-1H-pyrazol-4-yl)-1H-pyrrolo[3,2-b]pyridin-2-yl]-[1,2,4]triazolo[1,5-a]pyridine] | 281.7 |  | > 10 | 0.148 |  |
| Cc1cc(-c2ccc3[nH]c(-c4nc5n(n4)CCCC5c4ccc(F)cc4C)cc3n2)ccn1 (stereo not drawn) [Compound 33, 8-(4-fluoro-2-methylphenyl)-5,6,7,8-tetrahydro-2-[5-(2-methyl-4-pyridinyl)-1H-pyrrolo[3,2-b]pyridin-2-yl]-[1,2,4]triazolo[1,5-a]pyridine] | 267.2 | 0.049 | > 10 |  |  |
| N#Cc1ccc2[nH]c(-c3nc4n(n3)CCCC4c3ccccc3C(F)(F)F)nc2c1 (stereo not drawn) [Compound 38, 2-[5,6,7,8-tetrahydro-8-[2-(trifluoromethyl)phenyl][1,2,4]triazolo[1,5-a]pyridin-2-yl]-1H-benzimidazole-5-carbonitrile] | 252.2 | 0.871 | > 10 |  |  |
| COc1c(C#N)ccc2[nH]c(-c3cn4c(n3)C(c3ccc(F)cc3C)OCC4)cc12 (stereo not drawn) [Compound 48, 2-[8-(4-fluoro-2-methylphenyl)-5,6-dihydro-8H-imidazo[2,1-c][1,4]oxazin-2-yl]-4-methoxy-1H-indole-5-carbonitrile] | 244.4 |  |  | 1.02 | > 10 |
| COc1c(C#N)ccc2[nH]c(-c3cn4c(n3)C(c3ccccc3Cl)OCC4)cc12 (stereo not drawn) [Compound 51, 2-[8-(2-chlorophenyl)-5,6-dihydro-8H-imidazo[2,1-c][1,4]oxazin-2-yl]-4-methoxy-1H-indole-5-carbonitrile] | 255.6 |  |  | 0.708 | > 10 |
| COc1c(C#N)ccc2[nH]c(-c3nc4n(n3)CCCC4(O)c3ccc(F)cc3C)cc12 (stereo not drawn) [Compound 60, 2-[8-(4-fluoro-2-methylphenyl)-5,6,7,8-tetrahydro-8-hydroxy[1,2,4]triazolo[1,5-a]pyridin-2-yl]-4-methoxy-1H-indole-5-carbonitrile] | 287.1 | 0.138 | > 10 |  |  |
| N#Cc1ccc2cc(-c3nc4n(n3)CCCC4c3ccccc3C(F)(F)F)[nH]c2c1 (stereo not drawn) [Compound 61, 2-[5,6,7,8-tetrahydro-8-[2-(trifluoromethyl)phenyl][1,2,4]triazolo[1,5-a]pyridin-2-yl]-1H-indole-6-carbonitrile] | 175.7 | 3.98 | > 10 |  |  |
| N#Cc1ccc2[nH]c(-c3nc4n(n3)CCCC4c3ccccc3Cl)cc2c1 (stereo not drawn) [Compound 62, 2-[8-(2-chlorophenyl)-5,6,7,8-tetrahydro[1,2,4]triazolo[1,5-a]pyridin-2-yl]-1H-indole-5-carbonitrile] | 208.6 | 0.245 | > 10 |  |  |
| COc1ccccc1C1CCCn2cc(-c3cc4cc(C#N)ccc4[nH]3)nc21 (stereo not drawn) [Compound 67, 2-[5,6,7,8-tetrahydro-8-(2-methoxyphenyl)imidazo[1,2-a]pyridin-2-yl]-1H-indole-5-carbonitrile] | 251 | 0.501 | > 10 |  |  |
| Cc1cc(F)ccc1C1CCCn2cc(-c3cc4cc(C#N)ncc4[nH]3)nc21 (stereo not drawn) [Compound 72, 2-[8-(4-fluoro-2-methylphenyl)-5,6,7,8-tetrahydroimidazo[1,2-a]pyridin-2-yl]-1H-pyrrolo[2,3-c]pyridine-5-carbonitrile] | 255.5 | 0.126 | > 10 |  |  |
| COc1c(C#N)ccc2[nH]c(-c3nc4n(n3)CCOC4c3ccccc3Cl)cc12 (stereo not drawn) [Compound 137, 2-[8-(2-chlorophenyl)-5,6-dihydro-8H-[1,2,4]triazolo[5,1-c][1,4]oxazin-2-yl]-4-methoxy-1H-indole-5-carbonitrile] | 197.5 |  |  | 0.049 | > 10 |
| COc1c(C#N)ccc2[nH]c(-c3cn4c(n3)C(c3c(C)cccc3F)OCC4)cc12 (stereo not drawn) [Compound 139, 2-[8-(2-fluoro-6-methylphenyl)-5,6-dihydro-8H-imidazo[2,1-c][1,4]oxazin-2-yl]-4-methoxy-1H-indole-5-carbonitrile] | 296.2 |  |  | 1.62 | > 10 |
| COc1c(C#N)ccc2[nH]c(-c3nc4n(n3)CCOC4c3c(C)cccc3F)cc12 (stereo not drawn) [Compound 141, 2-[8-(2-fluoro-6-methylphenyl)-5,6-dihydro-8H-[1,2,4]triazolo[5,1-c][1,4]oxazin-2-yl]-4-methoxy-1H-indole-5-carbonitrile] | 244.4 |  |  | 0.028 | > 10 |
| COc1c(C#N)ccc2[nH]c(-c3nc4n(n3)CCOC4c3c(C)cccc3F)cc12 (stereo not drawn) [Compound 142, 2-[8-(2-fluoro-6-methylphenyl)-5,6-dihydro-8H-[1,2,4]triazolo[5,1-c][1,4]oxazin-2-yl]-4-methoxy-1H-indole-5-carbonitrile] | 244.8 |  |  | 2.82 | > 10 |
